In brackets after ≈: the same amount, converted by molar mass.
Experiments:
[1] = test system: S. rolfsii; details: cited from earlier work
[2] = biological target: E. coli DNA gyrase (Escherichia coli, UniProt P0AES4+P0AES6); test: E. coli DNA gyrase supercoiling assay; assay type: biochemical; details: for E. coli DNA gyrase IC50: supercoiling assay, relaxed plasmid DNA
[3] = biological target: E. coli topoisomerase I (Escherichia coli, UniProt P06612); test: E. coli topoisomerase I relaxation inhibition assay with supercoiled plasmid DNA; assay type: biochemical; details: relaxation of supercoiled pBAD/Thio plasmid, 30 min at 37°C
[4] = test system: Bacillus subtilis; test: Antibacterial MIC testing, microdilution, B. subtilis; assay type: cell-based; details: for MIC: Bacillus subtilis, read-out: MIC antibacterial activity; for B. subtilis MIC: cation-adjusted Mueller-Hinton Broth, 24 h, 37°C
[5] = test system: membrane permeable strain (BAS3023) of Escherichia coli; details: cited from earlier work
[6] = test system: Bacillus subtilis; details: cited from earlier work
[7] = test system: membrane permeable strain (BAS3023) of Escherichia coli; test: Antibacterial MIC testing, microdilution, E. coli; assay type: cell-based; details: 24 h; for E. coli MIC: membrane permeable strain of E. coli, cation-adjusted Mueller-Hinton Broth, 37°C

Chain of E. coli DNA gyrase (P0AES4 whole entry, one chain of several): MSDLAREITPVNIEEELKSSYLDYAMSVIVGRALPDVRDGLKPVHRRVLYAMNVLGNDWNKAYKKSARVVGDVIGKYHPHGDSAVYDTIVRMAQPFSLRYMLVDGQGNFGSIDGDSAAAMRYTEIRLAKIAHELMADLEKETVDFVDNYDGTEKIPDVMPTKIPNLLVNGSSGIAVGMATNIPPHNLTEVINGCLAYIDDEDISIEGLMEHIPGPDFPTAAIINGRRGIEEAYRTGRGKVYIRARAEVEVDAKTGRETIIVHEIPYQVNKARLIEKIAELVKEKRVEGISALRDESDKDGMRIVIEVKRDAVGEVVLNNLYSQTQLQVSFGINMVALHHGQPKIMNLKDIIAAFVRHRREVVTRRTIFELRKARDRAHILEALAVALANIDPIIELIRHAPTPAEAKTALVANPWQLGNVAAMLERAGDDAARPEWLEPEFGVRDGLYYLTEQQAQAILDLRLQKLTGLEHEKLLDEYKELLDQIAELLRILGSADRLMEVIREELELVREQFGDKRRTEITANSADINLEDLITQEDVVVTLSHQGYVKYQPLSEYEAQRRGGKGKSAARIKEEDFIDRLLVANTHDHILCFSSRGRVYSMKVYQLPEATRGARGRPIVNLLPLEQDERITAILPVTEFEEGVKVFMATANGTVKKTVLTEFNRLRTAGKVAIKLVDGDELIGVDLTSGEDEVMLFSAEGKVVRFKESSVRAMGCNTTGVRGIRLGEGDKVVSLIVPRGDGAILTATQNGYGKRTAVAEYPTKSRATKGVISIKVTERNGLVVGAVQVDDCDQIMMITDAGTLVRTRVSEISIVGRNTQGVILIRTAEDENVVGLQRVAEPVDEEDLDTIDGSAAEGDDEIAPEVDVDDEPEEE
Chain of E. coli topoisomerase I (P06612 whole entry): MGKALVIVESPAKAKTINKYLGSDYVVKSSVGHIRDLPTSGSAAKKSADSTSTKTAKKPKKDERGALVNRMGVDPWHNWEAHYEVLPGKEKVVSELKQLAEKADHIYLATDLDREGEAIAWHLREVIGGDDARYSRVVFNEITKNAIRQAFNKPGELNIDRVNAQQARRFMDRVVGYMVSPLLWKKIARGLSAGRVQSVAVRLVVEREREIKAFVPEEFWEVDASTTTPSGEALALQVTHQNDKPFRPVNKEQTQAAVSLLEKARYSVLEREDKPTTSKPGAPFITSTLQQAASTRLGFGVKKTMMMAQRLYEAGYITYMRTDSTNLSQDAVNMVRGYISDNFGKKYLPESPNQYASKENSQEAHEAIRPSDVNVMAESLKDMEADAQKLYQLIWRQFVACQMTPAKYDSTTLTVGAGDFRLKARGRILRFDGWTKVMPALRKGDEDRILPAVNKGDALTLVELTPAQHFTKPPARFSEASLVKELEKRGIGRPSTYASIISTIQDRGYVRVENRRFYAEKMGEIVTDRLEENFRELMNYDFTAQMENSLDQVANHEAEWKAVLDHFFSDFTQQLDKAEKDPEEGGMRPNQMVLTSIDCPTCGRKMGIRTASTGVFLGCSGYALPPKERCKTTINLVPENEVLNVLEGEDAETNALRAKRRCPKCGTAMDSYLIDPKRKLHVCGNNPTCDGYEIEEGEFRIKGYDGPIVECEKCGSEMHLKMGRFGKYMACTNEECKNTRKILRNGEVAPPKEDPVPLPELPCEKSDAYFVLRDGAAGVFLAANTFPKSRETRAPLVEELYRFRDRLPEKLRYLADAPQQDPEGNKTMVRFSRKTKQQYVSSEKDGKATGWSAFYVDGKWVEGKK

SMILES | IC50 [2] | E. coli DNA gyrase IC50 [2] | E. coli Topo I inhibition IC50 [3] | E. coli MIC [7] | also measured
COC(=O)c1c(C)cc(OC(=O)c2c(C)cc(O)c(C=O)c2O)c(C)c1O [atranorin] |  |  |  |  | ED50 antifungal activity against S. rolfsii [1]: 39.70 µg/mL (≈ 106 µM)
CCCCCc1cc(OC(=O)c2c(CCCCC)cc(OCc3ccccc3)cc2OCc2ccccc2)cc(O)c1C(=O)OCc1ccccc1 [Compound 6, benzyl 4-((2,4-bis(benzyloxy)-6-pentylbenzoyl)oxy)-2-hydroxy-6-pentylbenzoate] | > 1000 µM | inactive | inactive |  | 
O=C(O)c1cc(/N=N/c2cccc([N+](=O)[O-])c2)ccc1O [Compound 19] |  |  |  |  | MIC [4]: 200 to 400 µM (≈ 57.4 to 115 µg/mL)
CCCCCc1cc(O)cc(O)c1C(=O)Oc1cc(CCCCC)c2c(c1)OC(C)(C)OC2=O [Compound 14] | > 1000 µM | inactive | inactive |  | 
CCCCCc1cc(OC(=O)c2c(O)cc(O)cc2CCCCC)cc(O)c1C(=O)O [Anziaic acid (synthetic sample), anziaic acid] |  |  |  | 100 µM | MIC against membrane permeable strain (BAS3023) of Escherichia coli [5]: 12 µg/mL; MIC against Bacillus subtilis [6]: 6 µg/mL (≈ 13.9 µM)
Nc1ccc(/N=N/c2ccccc2)c(N)c1 [Compound 18] |  |  |  |  | MIC [4]: 200 to 400 µM (≈ 42.5 to 84.9 µg/mL); MIC ([7]; Escherichia coli, read-out: E. coli MIC): 200 to 400 µM (≈ 42.5 to 84.9 µg/mL)
O=C(O)c1ccc(OC(=O)c2ccc(O)cc2O)cc1O [Compound 11c] | > 1000 µM | complete loss | complete loss | complete loss | B. subtilis MIC [4]: complete loss
CCCCCc1cc(O)cc(O)c1C(=O)O [Compound 4, 2,4-dihydroxy-6-pentylbenzoic acid] | > 1000 µM | no inhibitory activity |  | no inhibitory activity | B. subtilis MIC [4]: no inhibitory activity
O=C(OCc1ccccc1)c1ccc(OC(=O)c2ccc(OCc3ccccc3)cc2OCc2ccccc2)cc1O [Compound 10c] | > 1000 µM |  |  |  | 
